The values that follow come from patent publication US10722500B2, “Gossypol 7-N-isatin Schiff base compounds with antitumor activities and a method of preparing the same” (SHAANXI PANLONG PHARMACEUTICAL GROUP LIMITED BY SHARE LTD., priority 2018, dated 2020).

The term melting point denotes the temperature of the solid-liquid transition.

Where two headings read alike, the source gives them in different places. A value given as a limit tells only on which side of the number the result lay.

In data set [1] the test system is human lung cancer cells (A-549). The data set is described as follows: MTT tumor cell proliferation inhibition test, A-549. Format: cell-based. Conditions: A549 cells, 48 hours treatment, read-out: Half Inhibitory Concentration IC50 A549. The protocol:
(§1) The compounds of the present invention were subjected to tumor cell proliferation inhibition test, and conventional MTT method was used.
(§2) Cell lines: human hepatoma cells (HepG2), human lung cancer cells (A-549), human gastric cancer cells (SGC-7901). The culture medium was DMEM+15% NBS+double antibody.
(§3) Sample solution preparation: after dissolving with DMSO (Merck), PBS (−) was added to obtain 100 μmol/L solution or homogeneous suspension. The solution was diluted with PBS (−) in DMSO to a final concentration of 0.1, 1, 10, 20, 40, 60, 80, 100 μmol/L.
(§4) Gossypol was used as control solution, prepared under the same condition.
(§5) Cell culture: adherent growth Tumor cells were cultured in 1640 medium containing 10% inactivated neonatal bovine serum and penicillin, streptomycin (1 million U/L), placed in carbon dioxide incubator at 37° C., 5% CO2, and saturated humidity. Cells were treated serially passaged 2-3 times. The first culture was washed with PBS 2 times, and digested with trypsin. Fresh culture medium was added evenly, cells were adjusted to a appropriate concentration and transferred into a new culture flask. Cell in an exponential phase were chosen for the tests.
(§6) MTT Assay for Cell Viability and IC50 Determination
(§7) Experimental Principle: Living cells mitochondria in the dehydrogenase can reduce yellow MTT to water-insoluble blue-violet product MT (MTT formazan), deposited in the cells. The amount of production is proportional to the number of living cells. […] DMSO can dissolve blue violet crystals, and the color depth is proportional to the amount contained, so the absorbance measured by the microplate reader can reflect the cell viability.
(§8) Methods: The exponential phase cells were digested and counted and seeded in 96-well plates at a density of 2×10^4/mL at 100 μl per well. After 24 hours of incubation, the cells to be tested were treated with 0.1, 1, 10, 20, 40, 60, 80, 100 μmol/L of the compounds. Each experimental group had 5 wells in each concentration, and the culture medium containing 0.4% DMSO was used as control. After 48 hours, the supernatant was discarded, and 100 μl of MTT ((2-(4,5-dimethyl-2-thiazolyl)-3,5-diphenyl-2H-[…]) (1 mg/mL) was added to each well. After another 4 hours, the supernatant was discarded, and 100 μl of DMSO was added to each well. After mixing, the absorbance was measured at 570 nm using a microplate reader. An IC50 calculation software was used to determine the half inhibitory concentration (IC50).

The subject of data set [2] is human hepatoma cells (HepG2). The data set is described as follows: MTT tumor cell proliferation inhibition test, HepG2. Type of data set: cell-based. The settings on record: read-out: Half Inhibitory Concentration IC50 HepG2. The protocol: as §1, §2, §3, §4, §5, §6, §7, §8
The test system of data set [3] is human gastric cancer cells (SGC-7901). Nature of the data set: MTT tumor cell proliferation inhibition test, SGC-7901. The settings on record: SGC-7901 cells, 48 hours treatment, read-out: Half Inhibitory Concentration IC50 SGC-7901. Format: cell-based. How it is done:
as §1, §2, §3, §4, §5, §6, §7, §8

In data set [4] the test system is HepG2, A-549, SGC-7901 tumor cells. The data set is described as follows: MTT tumor cell proliferation inhibition test, summary over the three cell lines. Conditions: the three cell lines tested. Type of data set: cell-based, human. The protocol:
as §1, §2, §3, §4
Cell culture: adherent growth Tumor cells were cultured in 1640 medium containing 10% inactivated neonatal bovine serum and penicillin, streptomycin (1 million U/L), placed in carbon dioxide incubator at 37° C., 5% CO2, and saturated humidity. Cells were treated serially passaged 2-3 times. The first culture was washed with PBS 2 times, and digested with trypsin. Fresh culture medium was added evenly, cells were adjusted to a appropriate concentration and transferred into a new culture flask. […]
Experimental Principle: Living cells mitochondria in the dehydrogenase can reduce yellow MTT to water-insoluble blue-violet product MT (MTT formazan), deposited in the cells. […] DMSO can dissolve blue violet crystals, and the color depth is proportional to the amount contained, so the absorbance measured by the microplate reader can reflect the cell viability.
Methods: The exponential phase cells were digested and counted and seeded in 96-well plates at a density of 2×10^4/mL at 100 μl per well. […] After 48 hours, the supernatant was discarded, and 100 μl of MTT ((2-(4,5-dimethyl-2-thiazolyl)-3,5-diphenyl-2H-[…]) (1 mg/mL) was added to each well. After another 4 hours, the supernatant was discarded, and 100 μl of DMSO was added to each well. After mixing, the absorbance was measured at 570 nm using a microplate reader. An IC50 calculation software was used to determine the half inhibitory concentration (IC50).

Setting [5] is: HepG2 cells, MTT, 48 hours treatment.

Consider `Cc1cc2c(C(C)C)c(O)c(O)c(/C=N/N=C3\C(=O)Nc4ncccc43)c2c(O)c1-c1c(C)cc2c(C(C)C)c(O)c(O)c(/C=N/N=C3/C(=O)Nc4ncccc43)c2c1O` [Compound 1, (3Z,3′E)-3,3′-(((1E,1′E)-(1,1′,6,6′,7,7′-hexahydroxy-5,5′-diisopropyl-3,3′-dimethyl-[2,2′-binaphthalene]-8,8′-diyl)bis(methanylylidene))bis(hydrazine-2,1-diylidene))bis(1,3-dihydro-2H-pyrrolo[2,3-b]pyridin-2-one)], for which the melting point was determined as 186.5 °C. For the same compound, the IC50 in data set [1] was above 100 µM. Further, the IC50 in data set [2] (setting [5]) was above 100 µM. In data set [3], the IC50 was above 100 µM.

Consider `Cc1cc2c(C(C)C)c(O)c(O)c(/C=N/N=C3\C(=O)N(C)c4ncccc43)c2c(O)c1-c1c(C)cc2c(C(C)C)c(O)c(O)c(/C=N/N=C3/C(=O)N(C)c4ncccc43)c2c1O` [Compound 2, (3Z,3′E)-3,3′-(((1E,1′E)-(1,1′,6,6′,7,7′-hexahydroxy-5,5′-diisopropyl-3,3′-dimethyl-[2,2′-binaphthalene]-8,8′-diyl)bis(methanylylidene))bis(hydrazine-2,1-diylidene))bis(1-methyl-1,3-dihydro-2H-pyrrolo[2,3-b]pyridin-2-one)], for which the IC50 in data set [1] was 11.2 ± 2.26 µM; in data set [2] (setting [5]), 12.5 ± 2.39 µM; in data set [3], above 100 µM. The “antitumor activities (in words)” value in data set [4] is given as “good activities”.

Consider `CCN1C(=O)/C(=N\N=C\c2c(O)c(O)c(C(C)C)c3cc(C)c(-c4c(C)cc5c(C(C)C)c(O)c(O)c(/C=N/N=C6/C(=O)N(CC)c7ncccc76)c5c4O)c(O)c23)c2cccnc21` [Compound 3, (3Z,3′E)-3,3′-(((1E,1′E)-(1,1′,6,6′,7,7′-hexahydroxy-5,5′-diisopropyl-3,3′-dimethyl-[2,2′-binaphthalene]-8,8′-diyl)bis(methanylylidene))bis(hydrazine-2,1-diylidene))bis(1-ethyl-1,3-dihydro-2H-pyrrolo[2,3-b]pyridin-2-one)], for which the IC50 in data set [1] worked out at 17.4 ± 0.79 µM; in data set [2] (setting [5]), 9.92 ± 0.79 µM; in data set [3], 13.4 ± 1.51 µM. Also, the “antitumor activities (in words)” value in data set [4] is reported as “good activities”.

The compound `Cc1cc2c(C(C)C)c(O)c(O)c(/C=N/N=C3\C(=O)N(C(C)C)c4ncccc43)c2c(O)c1-c1c(C)cc2c(C(C)C)c(O)c(O)c(/C=N/N=C3/C(=O)N(C(C)C)c4ncccc43)c2c1O` [Compound 4, (3Z,3′E)-3,3′-(((1E,1′E)-(1,1′,6,6′,7,7′-hexahydroxy-5,5′-diisopropyl-3,3′-dimethyl-[2,2′-binaphthalene]-8,8′-diyl)bis(methanylylidene))bis(hydrazine-2,1-diylidene))bis(1-isopropyl-1,3-dihydro-2H-pyrrolo[2,3-b]pyridin-2-one)] came in with a melting point of 209.1 °C. In data set [1], the IC50 stood at 74.1 ± 3.46 µM. The IC50 in data set [2] (setting [5]) is above 100 µM. For the same compound, in data set [3], the IC50 is above 100 µM.

With `Cc1cc2c(C(C)C)c(O)c(O)c(/C=N/N=C3\C(=O)N(Cc4ccccc4)c4ncccc43)c2c(O)c1-c1c(C)cc2c(C(C)C)c(O)c(O)c(/C=N/N=C3/C(=O)N(Cc4ccccc4)c4ncccc43)c2c1O` [Compound 5, (3Z,3′E)-3,3′-(((1E,1′E)-(1,1′,6,6′,7,7′-hexahydroxy-5,5′-diisopropyl-3,3′-dimethyl-[2,2′-binaphthalene]-8,8′-diyl)bis(methanylylidene))bis(hydrazine-2,1-diylidene))bis(1-benzyl-1,3-dihydro-2H-pyrrolo[2,3-b]pyridin-2-one)], the IC50 in data set [1] turned out to be 10.1 ± 1.33 µM; in data set [2] (setting [5]), 7.94 ± 0.85 µM; in data set [3] it was 12.3 ± 1.43 µM. For the same compound, in data set [4], the “antitumor activities (in words)” value is “excellent antitumor activities”.

The compound `CON1C(=O)/C(=N\N=C\c2c(O)c(O)c(C(C)C)c3cc(C)c(-c4c(C)cc5c(C(C)C)c(O)c(O)c(/C=N/N=C6/C(=O)N(OC)c7ncccc76)c5c4O)c(O)c23)c2cccnc21` [Compound 6, (3Z,3′E)-3,3′-(((1E,1′E)-(1,1′,6,6′,7,7′-hexahydroxy-5,5′-diisopropyl-3,3′-dimethyl-[2,2′-binaphthalene]-8,8′-diyl)bis(methanylylidene))bis(hydrazine-2,1-diylidene))bis(1-methoxy-1,3-dihydro-2H-pyrrolo[2,3-b]pyridin-2-one)] showed a melting point of 201.9 °C. In addition, the IC50 in data set [1] came out at 62.9 ± 2.15 µM. The IC50 in data set [2] (setting [5]) is above 100 µM. The IC50 in data set [3] is above 100 µM.

On to `Cc1cc2c(C(C)C)c(O)c(O)c(C=O)c2c(O)c1-c1c(C)cc2c(C(C)C)c(O)c(O)c(C=O)c2c1O` [Gossypol], for which, in data set [2] (HepG2, 48 h), the IC50 was determined as 955 ± 0.41 µM.
